Measurements: patent US4499104A, “Imidazole compound, the process for its preparation, and therapeutically active compositions containing same” (priority 1976, dated 1985)
Where two headings read alike, the source gives them in different places.

Tests used:
[1] = Edema by carrageen in normal and adrenoprival (suprarenectomised) rats; format: in vivo, rat; design: Edema by carrageen: unit not given beside the values
Method: A 1% physiological solution of carrageen was used. Rats of the Wistar-Roux-Ocefa stock having a weight of 150±30 g were used. The drugs were suspended in 1% carboxymethylcellulose or dissolved in distilled water and administered orally one hour before the inflammatory agent in a volume of 0.5 ml/100 g. The carrageen was adminstered subcutaneously in the subplanetary region of one of the rear paws. The volume of the paw was measured platysmagraphically initially and then after 1.5 hour, 3 hours and 5 hours after administering the carrageen. One inflammation unit was defined as the displacement of 0.01 ml of Hg.
The edema was evaluated as the difference in volume of the rear paw before and after the carrageen. The DE 50 was calculated by the probits method and graphically. The comparison drugs used were phenylbutazone and niflumic acid.
To evaluate if the activity of the chlorophenazole on edema by carrageen was influenced by stimulation of the suprarenes, experiments were carried out with suprarenectomised rats. Normal rats were also compared with falsely operated rats to evaluate the influence of the operational trauma.

[2] = Stretching by acetic acid (chemical stimulus), analgesic activity; format: in vivo, mice, Rockland-Roux-Ocefa stock
Method: Twelve mice of both sexes, Rockland-Roux-Ocefa stock of weight 23-25 g were used per group. The drugs were administered orally 30 minutes before i.p. injection of 0.1 ml/10 g of 0.6% acetic acid.

[3] = Hot plate method (thermal stimulus), analgesic activity; format: in vivo, Male mice
Method: This is based on the time (seconds) taked by the mouse for removing his paws from a plate heated to 56° C. Male mice were used of weight 25 to 27 g, preselected so that all reacted in a time less than 20 seconds.
The reaction time was measured 15, 30 and 60 minutes after administering the drugs. The chlorophenazole was tested orally and subcutaneously, both alone and associated with morphine hydrochloride. […] (FIGS. 2 and 3).

[4] = Action on sleep by barbiturates; format: in vivo, Wistar-Ocefa rats
Method: […] Loss of the redressment reflex was taken to indicate commencement of sleep. The chlorophenazone was administered orally with a dose of 1/10 of the DL50. The induction time and the duration of sleep were measured.

[5] = Anticonvulsive activity against cardiazole; format: in vivo, Rockland-Ocefa mice; conditions: for Protection from convulsivant cardiazole, first value: first of two values; for Protection from convulsivant cardiazole, second value: second of two values
Method: Rockland-Ocefa mice of both sexes weighing 22±3 g and fasting for 16 hours were used.

[6] = Anticonvulsive activity against strychnine; format: in vivo, Rockland-Ocefa mice; conditions: for Protection from convulsivant strychnine, first value: first of two values; for Protection from convulsivant strychnine, second value: second of two values
Method: Rockland-Ocefa mice of both sexes weighing 22±3 g and fasting for 16 hours were used. The convulsive agents were administered i.p. in doses of 2 mg/kg of strychnine sulphate and 110 mg/kg of cardiazole.

[7] = Acute toxicity, mouse; conditions: in vivo, read-out: DL50 and L.F.
[8] = test system: Rabbit; experiment: Acute toxicity, rabbit; format: in vivo; conditions: intravenous injection
Method: (b) Rabbit: by intravenous injection DL100 =55 mg/kg

[9] = test system: Dog; experiment: Acute toxicity, dog; format: in vivo
[10] = test system: rats; experiment: Chronic toxicity, first experiment (60 days); format: in vivo, Wistar-Ocefa rats; conditions: 60 days
Method: (§1) Wistar-Ocefa rats of both sexes weighing 70-90 g were used, divided into groups of 30 animals (15 males and 15 females) to a total of […].
(§2) Chlorophenazole and phenylbutazone (reference drug) were administered orally for a period of 60 days in doses of 30-60 mg/kg of chlorophenazole and 8-160 mg/kg of phenylbutazone (first experiment) and for a period of 5 months in doses of 6-12 mg/kg of chlorophenazole and 16 mg/kg of phenylbutazone (second experiment).
(§3) The following parameters were determined periodically: behavior, general state, food consumption, body weight, red blood cell number, white blood cell number, leucocite formula, hemoglobin, hematocrit, globular value, total proteins, glycemia, azotemia, cholesterol, total lipids, triglycerides, creatinine, GOT, GPT, urine analysis. At the end of the experiment the animals were sacrificed, their general state was observed, the following organs were weighed: liver, spleen, kidneys, supranenes, ovary and testicles, lungs, heart, stomach.

[11] = test system: rats; experiment: Chronic toxicity, second experiment (5 months); format: in vivo, Wistar-Ocefa rats; conditions: for cholesterol: male rats
Method: as §1, §2, §3

[12] = test system: Rat; conditions: in vivo
[13] = chlorophenazole 51.5 mg/kg oral + pentobarbital sodium 20 mg/kg

## Cc1[nH]cnc1-c1ccc(Cl)cc1 [Chlorophenazole, 4-(p-chlorophenyl)-5-methylimidazole]
[1]; adrenoprival rats
  dependence of activity on the suprarenal cortex: independent of the suprarenal cortex
[1]; adrenoprival rats, 10 mg/kg, 1.5 hours
  Edema by carrageen: 22
[1]; adrenoprival rats, 10 mg/kg, 3 hours
  Edema by carrageen: 27
[1]; adrenoprival rats, 10 mg/kg, 5 hours
  Edema by carrageen: 55
[1]; adrenoprival rats, 20 mg/kg, 1.5 hours
  Edema by carrageen: 16
[1]; adrenoprival rats, 20 mg/kg, 3 hours
  Edema by carrageen: 18
[1]; adrenoprival rats, 20 mg/kg, 5 hours
  Edema by carrageen: 45
[1]; adrenoprival rats, 40 mg/kg, 1.5 hours
  Edema by carrageen: 13
[1]; adrenoprival rats, 40 mg/kg, 3 hours
  Edema by carrageen: 20
[1]; adrenoprival rats, 40 mg/kg, 5 hours
  Edema by carrageen: 39
[1]; normal rats, 10 mg/kg, 1.5 hours
  Edema by carrageen: 15
[1]; normal rats, 10 mg/kg, 3 hours
  Edema by carrageen: 35
[1]; normal rats, 10 mg/kg, 5 hours
  Edema by carrageen: 58
[1]; normal rats, 20 mg/kg, 1.5 hours
  Edema by carrageen: 15
[1]; normal rats, 20 mg/kg, 3 hours
  Edema by carrageen: 29
[1]; normal rats, 20 mg/kg, 5 hours
  Edema by carrageen: 44
[1]; normal rats, 40 mg/kg, 1.5 hours
  Edema by carrageen: 15
[1]; normal rats, 40 mg/kg, 3 hours
  Edema by carrageen: 23
[1]; normal rats, 40 mg/kg, 5 hours
  Edema by carrageen: 42
[2]; 21.3 mg/kg oral
  % effect: 18%
  Number of stretches/20 min.: 70 stretches/20 min.
[2]; 33.0 mg/kg oral
  % effect: 42%
  Number of stretches/20 min.: 49 stretches/20 min.
[2]; 51.0 mg/kg oral
  % effect: 66%
  Number of stretches/20 min.: 29 stretches/20 min.
[2]; oral
  analgesic activity: very good analgesic activity, decidedly better than that of the clonixine (Table 5) and mepyrazole
[3]; 50 mg/kg oral
  reaction time relative to control mice: significantly prolongs the reaction time relative to the control mice
[3]; associated with morphine hydrochloride
  effect on morphine analgesia: evident increase exerted by the drug on morphine analgesia
[4]; 1/10 of the DL50 oral
  action on sleep by barbiturates: improves sleep by barbiturates
[4]; [13]
  Induction time: 2.9 min
  Sleeping time: 65.2 min
[5]; 50 mg/kg, 15'
  Protection from convulsivant cardiazole, first value: 6.23
  Protection from convulsivant cardiazole, second value: 6.70
[5]; 50 mg/kg, 30'
  Protection from convulsivant cardiazole, first value: 10.80
  Protection from convulsivant cardiazole, second value: 8.30
[5]; 50 mg/kg, 90'
  Protection from convulsivant cardiazole, first value: 8.10
  Protection from convulsivant cardiazole, second value: 7.0
[5]; 100 mg/kg, 15'
  Protection from convulsivant cardiazole, first value: 9.90
  Protection from convulsivant cardiazole, second value: 8.90
[5]; 100 mg/kg, 30'
  Protection from convulsivant cardiazole, first value: 13.00
  Protection from convulsivant cardiazole, second value: 26.40
[5]; 100 mg/kg, 90'
  Protection from convulsivant cardiazole, first value: 28.70
  Protection from convulsivant cardiazole, second value: 20.00
[5]; 200 mg/kg, 15'
  Protection from convulsivant cardiazole, second value: 9.2
[5]; 200 mg/kg, 30'
  Protection from convulsivant cardiazole, second value: 27.30
[5]; 200 mg/kg, 90'
  Protection from convulsivant cardiazole, second value: 30.10
[5]; cardiazole and strychnine
  framework of convulsive death: does not modify the framework of convulsive death
  premortal period: significant elongation of the premortal period
[6]; 50 mg/kg, 15'
  Protection from convulsivant strychnine, first value: 7.0
  Protection from convulsivant strychnine, second value: 7.4
[6]; 50 mg/kg, 30'
  Protection from convulsivant strychnine, first value: 12.8
  Protection from convulsivant strychnine, second value: 12.6
[6]; 50 mg/kg, 90'
  Protection from convulsivant strychnine, first value: 8.7
  Protection from convulsivant strychnine, second value: 13.8
[6]; 100 mg/kg, 15'
  Protection from convulsivant strychnine, first value: 11.7
  Protection from convulsivant strychnine, second value: 19.5
[6]; 100 mg/kg, 30'
  Protection from convulsivant strychnine, first value: 11.3
  Protection from convulsivant strychnine, second value: 13.8
[6]; 100 mg/kg, 90'
  Protection from convulsivant strychnine, first value: 9.5
  Protection from convulsivant strychnine, second value: 11.5
[6]; 200 mg/kg, 15'
  Protection from convulsivant strychnine, first value: 28.6
  Protection from convulsivant strychnine, second value: 18.3
[6]; 200 mg/kg, 30'
  Protection from convulsivant strychnine, first value: 12.8
  Protection from convulsivant strychnine, second value: 16.0
[6]; 200 mg/kg, 90'
  Protection from convulsivant strychnine, first value: 18.2
  Protection from convulsivant strychnine, second value: 21.0
[7]; ip
  LD50: 175 mg/kg
[7]; po, os
  LD50: 534 mg/kg
[8]
  DL100: 55 mg/kg
  final framework (symptoms): marked muscular hypotonia, an almost catatonic state and death by respiratory paralysis
[9]
  DL100: 50 mg/kg
[10]
  stomach appearance: distended and rose colored
[10]; larger doses
  cholesterol: the same for cholesterol at the larger doses
[11]; 6 mg/kg
  cholesterol: significant alteration
[11]; 12 mg/kg, female rats
  glycemia: small increase in glycemia
[11]; greater dose
  cholesterol: not confirmed with the greater dose
[12]
  toxicity relative to niflumic acid: much less toxic than the latter
